Results: patent US7745450B2, “Pyrazolo[4,3-d]pyrimidines, processes for their preparation and methods for therapy” (Institute of Experimental Botany, priority 2002, dated 2010)

Key:
[1] = biological target: MMK1 protein kinase (Vicia faba, UniProt A0AAV1B7B8); test: MMK1 protein kinase activity; assay type: biochemical
Experimental: Protein extraction and purification of pant CDK by binding to p13^suc1-beads or immunopurification with an antibody specific to the cdc2a-MS protein was carried out as described previously (Bögre et al. 1997, Plant Physiol. 113, 1997, 841-852). The MMK1 protein kinase was purified with a specific antibody from Vicia faba extracts as described by Bögre et al. 1997a, Plant Cell 9, 75-83). Protein kinase activity was measures as described above in Example 20. The quantification of radioactivity incorporated into histone H1 or myelin basic protein was undertaken using phosphoimager (FIG. 2).

[2] = tested on: CEM (human lymphoblastoid leukemia); test: In vitro cytotoxic activity, Calcein AM; assay type: cell-based; conditions: Homo sapiens, 72 h, three days
Experimental: We have been using the following cell lines: HELA (human cervical carcinoma), MCF7 (human breast adenocarcinoma), NIH 3T3 (mouse fibroblasts), HOS (human osteogenic sarcoma), HL 60 (human promyelocytic leukemia), G 361 (human malignant melanoma), K562 (human erythroleukemia), CEM (human lymphoblastoid leukemia). Tested drugs were added to the cell cultures in six different concentration and kept at 37° C. and 5% CO2 for three days. All cell lines were grown in DMEM medium (Gibco BRL) supplemented with 10% (v/v) fetal bovine serum and L-glutamine and maintained at 37° C. in a humidified atmosphere with 5% CO2. 10^4 cells were seeded into each well of 96 well plate, allowed to stabilize for at least 2 h and then tested compounds were added at various concentrations ranging from 200 to 0.2 μM in triplicates. Three days after drug addition Calcein AM solution (Molecular Probes) was added and let to enter the cells for 1 hour. Fluorescence of viable cells was quantified employing Fluoroskan Ascent (Microsystems).

[3] = tested on: normal human lymphocytes; test: Immunosuppressive activity, 3H-thymidine incorporation in concanavalin A activated lymphocytes; assay type: cell-based; conditions: Lymphocyte, 72 hours, [3H]-TdR, read-out: Human lymphocytes ED50
Experimental: Human heparinized peripheral blood was obtained from healthy volunteers by cubital vein punction. The blood was diluted in PBS (1:3) and mononuclear cells were separated by centrifugation in Ficoll-Hypaque density gradient (Pharmacia, 1.077 g/ml) at 2200 rpm for 30 minutes. Following centrifugation, lymphocytes were washed in PBS and resuspended in cell culture medium (RMPI 1640, 2 mM glutamine, 100 U/ml penicillin, 100 μg/ml streptomycin, 10% fetal calf serum and sodium bicarbonate).
The cells were diluted at target density of 1.100.000 cells/ml were added by pipette (180 μl) into 96/well microtiter plates. Four-fold dilutions of the intended test concentration were added at time zero in 20 μl aliquots to the microtiter plate wells. Usually, test compound was evaluated at six 4-fold dilutions. In routine testing, the highest well concentration was 266.7 μM. All drug concentrations were examined in duplicates. All wells with exception of unstimulated controls were activated with 50 μl of concanavalin A (25 μg/ml). Incubations of cells with test compounds lasted for 72 hours at 37° C., in 5% CO2 atmosphere and 100% humidity. At the end of incubation period, the cells were assayed by using the [^3H]-TdR:
Cell cultures were incubated with 0.5 μCi (20 μl of stock solution […]) per well for 6 hours at 37° C. and 5% CO2. The automated cell harvester was used to lyse cells in water and adsorb the DNA onto glass-fiber filters in the format of microtiter plate. The DNA incorporated [^3H]-TdR was retained on the filter while unincorporated material passes through. The filters were dried at room temperature overnight, sealed into a sample bag with 10-12 ml of scintillant. The amount of [^3H]-TdR present in each filter (in cpm) was determined by scintillation counting in a Betaplate liquid scintillation counter. The effective dose of immunosuppressant (ED) was calculated using the following equation: ED=(CCPMdrug exposed well/mean CCPMcontrol wells)×100%.

[4] = tested on: B16; test: In vitro cytotoxic activity, Calcein AM; assay type: cell-based; conditions: Mus musculus, B16, 72 h, three days

Sequence of MMK1 protein kinase (A0AAV1B7B8 1-394): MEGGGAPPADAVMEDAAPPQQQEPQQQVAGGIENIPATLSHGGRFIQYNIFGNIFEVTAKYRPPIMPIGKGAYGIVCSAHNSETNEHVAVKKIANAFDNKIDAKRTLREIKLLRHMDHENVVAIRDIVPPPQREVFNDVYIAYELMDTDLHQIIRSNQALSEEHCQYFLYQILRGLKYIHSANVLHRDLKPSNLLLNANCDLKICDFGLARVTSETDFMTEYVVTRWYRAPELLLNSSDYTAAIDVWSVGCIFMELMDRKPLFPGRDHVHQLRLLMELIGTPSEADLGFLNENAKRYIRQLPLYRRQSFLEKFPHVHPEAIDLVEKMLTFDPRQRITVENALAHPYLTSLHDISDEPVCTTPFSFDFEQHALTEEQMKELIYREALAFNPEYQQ

| Compound | IC50 [1] [µM] | GI50 [2] [µM] | EC50 [3] [µM] | GI50 [4] [µM] |
| --- | --- | --- | --- | --- |
| CC(C)c1n[nH]c2c(Nc3cccc(Cl)c3)nc(NC3CCCCC3N)nc12 (stereo not drawn) | 0.012 | 14 | 0.2 | 28 |
| CC(C)c1n[nH]c2c(NCc3ccccc3)nc(NC3CCCCC3N)nc12 (stereo not drawn) | 0.02 | 14 | 0.8 | 28 |
| Cc1n[nH]c2c(NCc3ccccc3)nc(NC3CCCCC3N)nc12 (stereo not drawn) | 0.9 | 2.3 | 1.2 | 3.2 |
| CC(C)c1n[nH]c2c(Nc3cccc(Cl)c3)nc(NCCN)nc12 | 0.25 | 16 | 6.7 | 22 |
| CC(C)c1n[nH]c2c(NCc3ccccc3)nc(NCCN)nc12 | 1.2 | 26 | 11.5 | 42 |
| Cc1n[nH]c2c(NCc3ccc(Cl)c(N)c3N)nc(NCCO)nc12 | 2.8 | 5.6 |  | 6.5 |
| Cc1n[nH]c2c(NCc3ccc(Cl)c(N)c3)nc(NCCO)nc12 | 1.8 | 12.4 |  | 13.5 |
| Cc1n[nH]c2c(N(C)Cc3ccc(O)c(O)c3)nc(NCCO)nc12 | 1.95 | 10.3 |  | 11.5 |
| CC(C)c1n[nH]c2c(NCc3ccccc3)nc(NCCO)nc12 | 2.3 | 25 | 27 | 37 |
| CC(C)c1n[nH]c2c(Nc3cccc(Cl)c3)nc(NCCCN)nc12 | 0.08 | 15 | 4.5 | 18 |
| CC(C)c1n[nH]c2c(NCc3ccccc3)nc(NCCCN)nc12 |  | 24 | 9.8 | 28 |
| Cc1n[nH]c2c(NCc3ccccc3)nc(NCCCN)nc12 | 1.4 | 32 | 12.4 | 38 |
| CC(C)c1n[nH]c2c(Nc3cccc(Cl)c3)nc(NCCCO)nc12 | 0.2 | 15 | 12 | 33 |
| CC(C)c1n[nH]c2c(NCc3ccccc3)nc(NCCCO)nc12 | 0.8 | 21 | 21 | 32 |
| CC(C)c1n[nH]c2c(NCc3ccccc3)nc(NC3CCC(N)CC3)nc12 (stereo not drawn) | 0.02 | 1.5 | 1.1 | 2.3 |
| Cc1n[nH]c2c(NCc3ccccc3)nc(NC3CCC(N)CC3)nc12 (stereo not drawn) | 0.6 | 1.7 | 1.5 | 2.5 |
| CC(C)c1n[nH]c2c(Nc3cccc(Cl)c3)nc(N(CCO)CCO)nc12 | 0.19 | 21 | 7 | 34 |
| CC(C)c1n[nH]c2c(NCc3ccccc3)nc(N(CCO)CCO)nc12 | 1.1 | 25 | 16 | 38 |
| CC(C)c1n[nH]c2c(NCc3ccccc3)nc(N[C@@H](CO)C(C)C)nc12 |  | 2.2 | 6.5 | 2.3 |

| Compound | IC50 [1] [µM] | GI50 [2] [µM] | EC50 [3] [µM] | GI50 [4] [µM] |
| --- | --- | --- | --- | --- |
| CC[C@H](CO)Nc1nc(NCc2ccccc2OC(C)=O)c2[nH]nc(C(C)C)c2n1 | 0.2 | 13.8 |  | 19.3 |
| CC[C@H](CO)Nc1nc(NCc2ccccc2C(C)=O)c2[nH]nc(C(C)C)c2n1 | 0.015 | 11.9 |  | 16.3 |
| CC[C@H](CO)Nc1nc(NCc2cccc(Cl)c2O)c2[nH]nc(C(C)C)c2n1 | 0.012 | 1.2 |  | 2.4 |
| CC[C@H](CO)Nc1nc(NCc2cccc(OC)c2O)c2[nH]nc(C(C)C)c2n1 | 0.012 | 3.1 |  | 6.2 |
| CC[C@H](CO)Nc1nc(NCc2cccc(C)c2O)c2[nH]nc(C(C)C)c2n1 | 0.014 | 1.9 |  | 2.1 |
| CC[C@H](CO)Nc1nc(NCc2ccccc2O)c2[nH]nc(C(C)C)c2n1 | 0.012 | 7.8 |  | 9.3 |
| CC[C@H](CO)Nc1nc(NCc2ccc(Cl)c(O)c2O)c2[nH]nc(C(C)C)c2n1 | 0.011 | 3.1 |  | 5.6 |
| CC[C@H](CO)Nc1nc(NCc2ccc(OC)c(O)c2O)c2[nH]nc(C(C)C)c2n1 | 0.005 | 4.7 |  | 6.2 |
| CC[C@H](CO)Nc1nc(NCc2cc(O)c(Cl)cc2O)c2[nH]nc(C(C)C)c2n1 | 0.015 | 2.5 |  | 4.8 |
| CC[C@H](CO)Nc1nc(NCc2cccc(OC(C)=O)c2)c2[nH]nc(C(C)C)c2n1 | 0.4 | 18.5 |  | 23.7 |
| CC[C@H](CO)Nc1nc(NCc2cccc(C(C)=O)c2)c2[nH]nc(C(C)C)c2n1 | 0.04 | 11.5 |  | 19.1 |
| CC[C@H](CO)Nc1nc(Nc2ccc(Cl)c(N)c2)c2[nH]nc(C(C)C)c2n1 | 0.013 | 4.7 |  | 7.5 |
| CC[C@H](CO)Nc1nc(Nc2ccc(O)c(C(=O)O)c2)c2[nH]nc(C(C)C)c2n1 | 0.03 | 18.4 |  | 25.8 |
| CC[C@H](CO)Nc1nc(Nc2cc(N)cc(Cl)c2)c2[nH]nc(C(C)C)c2n1 | 0.02 | 9.4 |  | 16.5 |
| CC[C@H](CO)Nc1nc(NCc2cccc(O)c2)c2[nH]nc(C(C)C)c2n1 | 0.04 | 10.5 |  | 12.4 |
| CC[C@H](CO)Nc1nc(NCc2ccc(O)c(O)c2)c2[nH]nc(C(C)C)c2n1 | 1.1 | 9.2 |  | 15.7 |
| CC[C@H](CO)Nc1nc(Nc2ccccc2)c2[nH]nc(C(C)C)c2n1 | 0.11 | 13.2 |  | 18.4 |
| CC[C@H](CO)Nc1nc(NCc2ccccc2)c2n[nH]c(C(C)C)c2n1 | 0.03 | 2.4 | 4.5 | 3.2 |
| Cc1n[nH]c2c(Nc3ccccc3)nc(NCCO)nc12 [2-hydroxyethylamino / anilino / methyl] | 2.5 | 10.2 |  | 12.4 |
